Measurements: PMC3921447, “Homologous and heterologous desensitization of guanylyl cyclase-B signaling in GH3 somatolactotropes” (Cell and Tissue Research, 2013)

Key:
GC-B [1] = biological target: T1, GC-B (Rattus norvegicus, UniProt P16067); experiment: Heterologous desensitization of CNP-stimulated (GC-B) cGMP accumulation in GH3 cells; assay type: cell-based
T1 construct: rapid homologous desensitization of endogenous GC-B receptors in GH3 cells; endogenous in cells; host or cells: GH3 rat somatolactotrope cells
T1 sequence (P16067 17-1047): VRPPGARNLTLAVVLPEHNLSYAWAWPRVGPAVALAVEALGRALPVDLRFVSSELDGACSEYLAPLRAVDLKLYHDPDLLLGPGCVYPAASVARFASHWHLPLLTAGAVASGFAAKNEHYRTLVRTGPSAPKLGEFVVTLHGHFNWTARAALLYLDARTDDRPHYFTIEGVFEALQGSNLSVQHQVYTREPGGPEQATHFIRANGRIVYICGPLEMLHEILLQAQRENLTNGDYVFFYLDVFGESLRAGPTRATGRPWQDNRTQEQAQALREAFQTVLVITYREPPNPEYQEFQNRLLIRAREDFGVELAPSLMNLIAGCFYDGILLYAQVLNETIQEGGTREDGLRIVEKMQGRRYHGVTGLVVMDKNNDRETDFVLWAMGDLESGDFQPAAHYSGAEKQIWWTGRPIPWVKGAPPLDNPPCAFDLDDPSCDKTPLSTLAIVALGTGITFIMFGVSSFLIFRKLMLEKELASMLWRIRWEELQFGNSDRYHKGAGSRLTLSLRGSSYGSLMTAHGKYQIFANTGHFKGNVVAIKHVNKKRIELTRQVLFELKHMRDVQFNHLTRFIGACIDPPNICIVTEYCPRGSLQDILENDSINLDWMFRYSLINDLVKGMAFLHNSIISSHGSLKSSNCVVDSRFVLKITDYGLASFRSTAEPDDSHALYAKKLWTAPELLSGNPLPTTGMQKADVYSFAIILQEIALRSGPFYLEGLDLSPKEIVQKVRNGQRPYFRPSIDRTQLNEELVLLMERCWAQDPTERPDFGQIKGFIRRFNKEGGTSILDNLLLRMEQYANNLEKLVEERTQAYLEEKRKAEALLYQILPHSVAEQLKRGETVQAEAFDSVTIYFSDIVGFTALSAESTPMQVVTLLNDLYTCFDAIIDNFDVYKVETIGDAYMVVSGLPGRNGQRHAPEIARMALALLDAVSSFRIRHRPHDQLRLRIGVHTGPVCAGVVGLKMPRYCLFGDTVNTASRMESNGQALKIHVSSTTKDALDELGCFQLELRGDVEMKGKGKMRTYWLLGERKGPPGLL
From the text: (§1) Sphingolipids and calcium have been implicated in regulating natriuretic peptide signaling (Abbey-Hosch et al. [2004]; Abbey and Potter [2002]). Therefore, we examined the role of sphingosine-1-phosphate (S1P) on CNP-stimulated cGMP accumulation. […] However, S1P pre-treatment did cause desensitization of CNP-stimulated cGMP accumulation (by 30 ± 2.7 % compared with control, **P < 0.01).
(§2) Fig. 6 Evidence of sphingosine-mediated but not calcium-mediated, heterologous desensitization of GC-B signaling in GH3 somatolactotrope cells. GH3 cells were pre-treated with PSS containing either (a, b) 10 μM sphingosine-1-phosphate (S1P) or (c, d) 1 μM A23187 (calcium ionophore) for 30 min in the absence of IBMX, before a 15-min stimulation with either 100 nM CNP (a, c) or 100 nM ANP (b, d) in the presence of 1 mM IBMX.
(§3) Subsequent experiments examined the potential regulation of GC-B signaling by other peptide hormones. To determine whether the GC-B receptor underwent heterologous desensitization in GH3 cells, the effect of three known activators of PKC on CNP-stimulated cGMP accumulation was analyzed. […] To establish whether the TRH-induced heterologous desensitization of GC-B signaling was PKC-dependent, GH3 cells were pre-treated with either 0 or 1 μM GF109203X for 30 min to inhibit PKC activity. After this, cells were further pre-treated in the absence or presence of GF109203X and 0 or 100 nM TRH for a further 30 min, prior to stimulation with 0 or 100 nM CNP for a final 15-min stimulation in the presence of 1 mM IBMX.
(§4) Fig. 7 Protein kinase C (PKC)-dependent heterologous desensitization mediates the effects of thyrotrophin-releasing hormone (TRH) on CNP-stimulated GC-B signaling in GH3 somatolactotrope cells. a GH3 cells were pre-treated with PSS containing either 0 or 100 nM TRH, phorbol-12-myristate-13-acetate (PMA), or pituitary adenylate cyclase-activating polypeptide (PACAP) for 30 min in the absence of IBMX, before a 15-min stimulation with either 0 or 100 nM CNP in the presence of 1 mM IBMX.

GC-A = biological target: T2, GC-A (Rattus norvegicus, UniProt P18910); experiment: Heterologous desensitization of ANP-stimulated (GC-A) cGMP accumulation in GH3 cells; assay type: cell-based
T2 construct: Evidence of homologous desensitization of endogenous GC-A- and GC-B-mediated signaling in GH3 cells; endogenous in cells; host or cells: GH3 rat somatolactotrope cells
T2 sequence (P18910 29-1057): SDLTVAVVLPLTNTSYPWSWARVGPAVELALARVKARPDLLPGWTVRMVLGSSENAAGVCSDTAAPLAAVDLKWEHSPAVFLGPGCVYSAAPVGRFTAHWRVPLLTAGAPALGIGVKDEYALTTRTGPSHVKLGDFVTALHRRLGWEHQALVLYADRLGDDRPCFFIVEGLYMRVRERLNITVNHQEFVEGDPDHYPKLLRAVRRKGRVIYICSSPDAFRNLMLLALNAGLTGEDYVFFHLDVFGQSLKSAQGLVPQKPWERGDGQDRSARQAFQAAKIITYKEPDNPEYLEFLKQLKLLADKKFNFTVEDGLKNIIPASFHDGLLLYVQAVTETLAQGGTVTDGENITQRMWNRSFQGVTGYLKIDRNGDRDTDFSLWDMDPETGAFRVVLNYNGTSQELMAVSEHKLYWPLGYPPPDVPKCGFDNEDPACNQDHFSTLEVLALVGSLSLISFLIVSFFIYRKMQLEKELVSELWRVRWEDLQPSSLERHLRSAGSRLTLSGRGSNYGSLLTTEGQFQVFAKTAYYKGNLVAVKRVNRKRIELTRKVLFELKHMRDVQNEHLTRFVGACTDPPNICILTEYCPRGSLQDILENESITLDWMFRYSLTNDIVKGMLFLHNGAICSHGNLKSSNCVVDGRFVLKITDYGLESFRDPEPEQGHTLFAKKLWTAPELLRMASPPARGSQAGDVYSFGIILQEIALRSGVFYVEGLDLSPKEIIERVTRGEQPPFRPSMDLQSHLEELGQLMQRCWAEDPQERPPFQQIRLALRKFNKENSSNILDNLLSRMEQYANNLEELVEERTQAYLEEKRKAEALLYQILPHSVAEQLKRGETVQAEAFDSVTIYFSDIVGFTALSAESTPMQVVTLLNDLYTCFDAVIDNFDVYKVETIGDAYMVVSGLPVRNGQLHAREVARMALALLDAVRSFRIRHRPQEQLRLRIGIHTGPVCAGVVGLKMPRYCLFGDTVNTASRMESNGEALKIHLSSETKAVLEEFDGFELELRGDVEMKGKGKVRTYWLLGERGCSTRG
From the text: as §1
Fig. 6 Evidence of sphingosine-mediated but not calcium-mediated, heterologous desensitization of GC-B signaling in GH3 somatolactotrope cells. […]

GC-B [2] = biological target: T1, GC-B; experiment: Effect of protein phosphatase inhibitors on rapid homologous desensitization of CNP-stimulated cGMP accumulation in GH3 cells; assay type: cell-based; settings: for rate of cGMP accumulation from 5 to 15 min (desensitization): 100 nM CNP, 1 mM IBMX, 30 min pre-treatment with 100 nM OA, 1 nM cypermethrin or 1 mM Na3VO4, control = CNP alone, n = 3; for reversal of the failure to maintain the initial rate of cGMP accumulation: 30 min pre-treatment with phosphatase inhibitor, then 100 nM CNP, discussion statement
Description: Fig. 2 Rapid homologous desensitization of CNP-dependent but not ANP-dependent cGMP accumulation in GH3 cells. Cells were treated with PSS containing either (a) 100 nM CNP or (b) 100 nM ANP for 0–15 min in the presence of 1 mM IBMX.
Similar short time-courses were performed, except that some cells were pre-treated with 100 nM okadaic acid (OA, a PP2A inhibitor), 1 nM cypermethrin (a PP2B inhibitor), or 1 mM sodium orthovanadate (Na3VO4, a protein tyrosine phosphatase inhibitor) for 30 min prior to CNP treatment (Fig. 2c).

GC-B [3] = settings: NIH3T3, A10, 293 T cells; ref Abbey-Hosch et al. [2004], [2005]; cited from earlier work
From the text: Heterologous desensitization of the natriuretic peptide receptors has been widely reported. Sphinogosine signaling is implicated in GC-B desensitization in NIH3T3 fibroblasts, A10 vascular smooth muscle cells and 293 T cells (Abbey-Hosch et al. [2004], [2005]). […] In the current study, we observed a modest effect of S1P pre-treatment of CNP-stimulated cGMP accumulation in GH3 ce ...

GH3 cells = experiment: Basal cGMP accumulation in GH3 cells after pre-treatment; assay type: cell-based, rat; settings: 30 min pre-treatment
From the text: as §1, §2, §3, §4

[4] = 100 nM TRH, PMA or PACAP, ns, P > 0.05, Fig. 7a

In the case of `CNc1ccc2oc(C[C@H]3O[C@@]4(CC[C@H]3C)O[C@H]([C@H](C)C(=O)c3ccc[nH]3)[C@H](C)C[C@H]4C)nc2c1C(=O)O` [A23187], the “effect on CNP-stimulated cGMP accumulation” value (GC-B [1]; 10 μM A23187 30 min pre-treatment, then 100 nM CNP 15 min, Fig. 6c) is reported as “failed to alter either CNP- or ANP-stimulated cGMP accumulation” and the “effect on ANP-stimulated cGMP accumulation” value (GC-A; 10 μM A23187 30 min pre-treatment, then 100 nM ANP 15 min, Fig. 6d) is reported as “failed to alter either CNP- or ANP-stimulated cGMP accumulation”.

For `[Na+].[Na+].[Na+].[O]=[V]([O-])([O-])[O-]` [Na3VO4, sodium orthovanadate], the “rate of cGMP accumulation from 5 to 15 min (desensitization)” value (“rate … (desensitization)” for short) (GC-B [2]) was “failed to maintain a significant rate of cGMP accumulation” and the “reversal of the failure to maintain the initial rate of cGMP accumulation” value (“reversal of the failure” for short) (GC-B [2]) was “failed to reverse the apparent homologous desensitization”.

With `C=C1[C@@H](O)[C@@H]2O[C@]3(CC[C@H](/C=C/[C@@H](C)[C@@H]4CC(C)=C[C@@]5(O[C@H](C[C@@](C)(O)C(=O)O)CC[C@H]5O)O4)O3)CC[C@H]2O[C@@H]1[C@@H](O)C[C@H](C)[C@H]1O[C@@]2(CCCCO2)CC[C@H]1C` [OA, okadaic acid] the “rate … (desensitization)” value (GC-B [2]) was “maintained a significant rate of cGMP accumulation from 5 to 15 min” and the “reversal of the failure” value (GC-B [2]) was “partially reversed the failure to maintain the initial rate of cGMP accumulation”.

In the case of `CCCCCCCCCCCCC/C=C/[C@@H](O)[C@@H](N)COP(=O)(O)O` [S1P, sphingosine-1-phosphate], the “desensitization (reduction) of CNP-stimulated cGMP accumulation vs control” value (GC-B [1]; 10 μM S1P 30 min pre-treatment without IBMX, then 100 nM CNP 15 min with 1 mM IBMX, **P < 0.01, n = 3, Fig. 6a) is given as 30 ± 2.7%, the “mechanism of GC-B desensitization” value (GC-B [3]) is given as “does not require PKC activation but is reliant on the elevation of intracellular Ca^2+ levels” and the “desensitization of ANP-stimulated cGMP accumulation” value (GC-A; 10 μM S1P 30 min pre-treatment, then 100 nM ANP 15 min with 1 mM IBMX, ns, P > 0.05, Fig. 6b) is given as “did not result in desensitization of ANP-stimulated cGMP accumulation”. The “basal cGMP accumulation” value (GH3 cells; 10 μM S1P, Fig. 6a) was “failed to significantly alter basal cGMP accumulation”.

With `CC1(C)C(C=C(Cl)Cl)C1C(=O)OC(C#N)c1cccc(Oc2ccccc2)c1` (stereo not drawn) [cypermethrin] the “rate … (desensitization)” value (GC-B [2]) was “failed to maintain a significant rate of cGMP accumulation” and the “reversal of the failure” value (GC-B [2]) was “failed to reverse the apparent homologous desensitization”.

In the case of `C[C@H](CCC(=O)O)C[C@H](C)C[C@H](C)C(=O)/C=C(\O)[C@H](C)C[C@H](C)C/C=C/[C@@H](C)[C@@H](O)[C@@H](C)[C@@H](O)C[C@@H]1CC[C@@](C)([C@H]2CC[C@@](C)([C@@H](C)O)O2)O1` [ionomycin], the “mechanism of GC-B desensitization” value (GC-B [3]) is listed as “having a similar effect”.

In the case of “pituitary adenylate cyclase-activating polypeptide [PACAP]”, the “effect on CNP-stimulated cGMP accumulation” value (GC-B [1]; 100 nM PACAP 30 min pre-treatment, then 100 nM CNP 15 min with 1 mM IBMX, ns, P > 0.05, Fig. 7a) is reported as “failed to alter CNP-stimulated cGMP accumulation” and the “basal cGMP accumulation” value (GH3 cells; [4]) is reported as “failed to alter basal cGMP accumulation”.

In the case of thyrotrophin-releasing hormone [TRH], the “CNP-stimulated cGMP, % of control response to CNP (reduced to)” value (GC-B [1]; 100 nM TRH 30 min pre-treatment without GF109203X, then 100 nM CNP 15 min with 1 mM IBMX, P < 0.001, n = 3, Fig. 7b) is reported as 20.1 ± 5.4%, the “reduction in CNP-stimulated cGMP accumulation compared with control” value (GC-B [1]; 100 nM, 30 min pre-treatment without IBMX, then 100 nM CNP 15 min with 1 mM IBMX, ***P < 0.001, n = 3, Fig. 7a) is reported as 44.6 ± 2.5% and the “basal cGMP accumulation” value (GH3 cells; [4]) is reported as “failed to alter basal cGMP accumulation”.
